Reference: PubChem BioAssay (NCI)
Values joined by “and” are separate entries in the source; they are usually repeats but may differ in a detail not shown here. Equal entries are not always repeated.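 Protocol summary: plate cells (96-well), add compound at 5 concentrations, incubate 48 h, interpolate endpoints linearly. The concentration for 50% growth inhibition is given as GI50. TGI: total growth inhibition.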

How the values were obtained:
Experiment in all cases: NCI-60 cell line screen, 48 h
SK-MEL-28 melanoma = system: SK-MEL-28 melanoma
OVCAR-8 ovarian = system: OVCAR-8 ovarian
LOX IMVI melanoma = system: LOX IMVI melanoma
UACC-62 melanoma = system: UACC-62 melanoma
CAKI-1 renal = system: CAKI-1 renal
TK-10 renal = system: TK-10 renal
MCF7 breast = system: MCF7 breast
SF-268 CNS = system: SF-268 CNS
EKVX NSCLC = system: EKVX NSCLC
SK-OV-3 ovarian = system: SK-OV-3 ovarian

SMILES	GI50 (SK-MEL-28 melanoma) [µM]	TGI (SK-MEL-28 melanoma)	GI50 (OVCAR-8 ovarian)	TGI (OVCAR-8 ovarian)	GI50 (LOX IMVI melanoma) [µM]	TGI (LOX IMVI melanoma)	GI50 (UACC-62 melanoma) [µM]	TGI (UACC-62 melanoma) [µM]	GI50 (CAKI-1 renal) [µM]	TGI (CAKI-1 renal)	GI50 (TK-10 renal) [µM]	TGI (TK-10 renal) [µM]	GI50 (MCF7 breast) [µM]	TGI (MCF7 breast)	GI50 (SF-268 CNS) [µM]	TGI (SF-268 CNS)	GI50 (EKVX NSCLC) [µM]	TGI (EKVX NSCLC)	GI50 (SK-OV-3 ovarian) [µM]	TGI (SK-OV-3 ovarian)
C=C(CN(CCN1CCOCC1)CC(=C)c1ccc(C(=O)Nc2ccccc2N)cc1)c1ccc(C(=O)Nc2ccccc2N)cc1	6.86	16.2 µM	1.79 µM	29.5 µM	1.07	6.47 µM	2.48	10.6	9.45	34.6 µM	4.44	12	11	> 50 µM	8.17	25 µM	14	> 50 µM	8.26	17.2 µM
CN(C)CCC(=O)NCc1c2nc3ccccc3nc2n2ccccc12	83.9	> 100 µM	84.8 µM	> 100 µM	21	40.4 µM	> 100	> 100	60.6	> 100 µM	16	47.6	17.4	> 100 µM	41.5	> 100 µM	43.1	> 100 µM	> 100	> 100 µM
CCC(C)c1cnc(CC(C)C)c(=O)[nH]1 (configuration not stated)		> 100 µM		> 100 µM		> 100 µM		> 100		> 100 µM		> 100		> 100 µM		> 100 µM		> 100 µM		> 100 µM
NCCCn1c2c(c3ccc([N+](=O)[O-])cc3c1=O)C(=O)c1cc(Cl)ccc1-2	0.126	1.67 µM	< 0.01 µM	0.109 µM	< 0.01	0.117 µM	< 0.01	0.0696	< 0.01	0.317 µM	0.379	0.811	< 0.01	0.141 µM	< 0.01	0.391 µM	0.0241	0.189 µM	< 0.01	0.197 µM
C[C@@H]1CCC2[C@@H](C)[C@H](OC(=O)CCC(=O)NCCNC(=O)Cc3cc(=O)oc4cc(N(C)C)ccc34)O[C@@H]3O[C@]4(C)CC[C@@H]1C23OO4 (some centres not stated)	17.4	> 100 µM	0.906 µM	> 47.8 µM	0.566	2.31 µM	0.711	> 91	2.64	> 25.6 µM	3.24	18.6	2.92	28.2 µM	5.25	> 65.2 µM	0.645	9.47 µM	29	> 100 µM
c1cc(C2N3CCCN2CC3)ccn1 (configuration not stated)		> 100 µM		> 100 µM		> 100 µM		> 100		> 100 µM		> 100		> 100 µM		30.4 µM		> 100 µM		> 100 µM
CO[C@H]1/C=C/C[C@H](C)[C@@H](C)S(=O)(=O)NC(=O)c2ccc3c(c2)N(C[C@@H]2CC[C@H]21)C[C@@]1(CCCc2cc(Cl)ccc21)CO3	2.61	8.04 µM	3.72 µM	14.4 µM	1.84	3.41 µM	0.659	2.46	3.45	12.9 µM	2.8	11.1	1.43	9.77 µM	3.6	14 µM	1.91	6.76 µM	3.5	12.6 µM
c1ccc([P+](CCC[P+](c2ccccc2)(c2ccccc2)c2ccccc2)(c2ccccc2)c2ccccc2)cc1	11.2	> 100 µM	10.5 µM	> 100 µM		> 100 µM		> 100		> 100 µM		> 100	6.79	> 100 µM	7.71	> 100 µM		> 100 µM	69.1	> 100 µM
c1cc(-c2cnn3nc(N4CCOCC4)ccc23)nc(NC2CC2)n1	6.64	> 23.7 µM	7.9 µM	> 25 µM	6.23	> 25 µM	7.76	> 25	7.21	> 25 µM	7.7	20.3	5.38	> 25 µM	8.14	24.6 µM	10.5	> 25 µM	14.6	> 25 µM
Cc1ccc(C(=O)Nc2ccccc2C(=O)N/N=C(\c2ccccc2)c2ccccn2)cc1	0.597	> 100 µM	0.377 µM	> 100 µM	0.302	> 100 µM	0.36	6.7	0.324	> 100 µM	3.58	> 100	0.359	> 100 µM	0.274	> 100 µM	0.207	> 100 µM	0.478	> 100 µM
COc1cc(/C=N/O)nc(-c2ccccn2)c1	0.476	> 100 µM	0.348 µM	22.8 µM	0.271	10.8 µM	0.325	2.7		8.97 µM	0.325	> 100	0.347	> 100 µM	0.357	68.2 µM	0.342	> 100 µM		> 100 µM
CC1(C)CC(O)CCCCCCOc2c(CN)cccc2NC(=O)c2nc(cnc2N)-c2ccc(cc2)S1(=O)=O (configuration not stated)	1.13	2.48 µM	2.14 µM	5.87 µM	1.26	2.88 µM	1.67	3.3	1.15	2.6 µM	1.52	3.86	< 0.01	1.81 µM	1.27	3.44 µM	1.93	5.78 µM	2.22	15.8 µM
CCCCc1oc2ccccc2c1C(=O)c1cc(I)c(OCCN(CC)CC)c(I)c1	1.91	4 µM and 10.1 µM	3.37 µM and 11 µM	13.2 µM and 92.5 µM	1.49	2.82 µM and 7.86 µM		3.83	2.51	10.7 µM and 15.5 µM	5.12	17.8	1.78	3.71 µM and 10.8 µM	3.28	14 µM and 38.9 µM	2.86	14.8 µM and 47.1 µM	2.69	6.41 µM and 20.1 µM
CCOC(CN(C)C(=O)OCC(Cl)(Cl)Cl)OCC		> 100 µM		> 100 µM		> 100 µM		> 100		> 100 µM		> 100		> 100 µM		> 100 µM		> 100 µM		> 100 µM
C/C=C/COc1cc(NC(=S)c2ccoc2C)ccc1OC		> 100 µM		> 100 µM		> 100 µM		> 100		> 100 µM		> 100		> 100 µM		> 100 µM		> 100 µM		> 100 µM
NC(N)=N/N=C(/c1ccccc1)c1ccc(O)cc1O		> 100 µM		59.2 µM		> 100 µM		> 100		> 100 µM		> 100		> 100 µM		> 100 µM		64.7 µM		> 100 µM
COC(=O)c1cccc2c1Oc1ccccc1S2		> 100 µM		> 100 µM		> 100 µM		> 100		65.1 µM		> 100		> 100 µM		> 100 µM		> 100 µM		> 100 µM
CSc1ccc(C(=O)/C=C/c2ccc(F)cc2)cc1	69.3	> 100 µM	> 100 µM	> 100 µM	29.1	83.4 µM	> 100	> 100	> 100	> 100 µM	85.3	> 100	28.5	70 µM	75.9	> 100 µM	> 100	> 100 µM	> 100	> 100 µM
